Test results taken from ChEMBL document CHEMBL2021794, “Synthesis, σ₁, σ₂-receptors binding affinity and antiproliferative action of new C1-substituted adamantanes” (Bioorg Med Chem, 2012).

Columns and labels:
Assay type in all cases: functional
[1] = test system: PC-3; assay: Cell cycle arrest in human PC3 cells assessed as accumulation at G2 phase at 5 uM after 24 hrs by propidium iodide staining based flow cytometry (reference value: 13%)
[2] = test system: IGROV-1; assay: Cell cycle arrest in human IGROV1 cells assessed as accumulation at G1 phase at 5 uM after 24 hrs by propidium iodide staining based flow cytometry (reference value: 27%)
[3] = test system: PC-3; assay: Induction of apoptosis in human PC3 cells assessed as total apoptotic death cells at 5 uM after 24 hrs by Annexin V/7-AAD staining based flow cytometry (reference value: 7%)
[4] = test system: PC-3; assay: Cell cycle arrest in human PC3 cells assessed as accumulation at < G1 phase at 15 uM after 24 hrs by propidium iodide staining based flow cytometry (reference value: 4%)

CN1CCN(c2ccc(C(c3ccccc3)C34CC5CC(CC(C5)C3)C4)cc2)CC1 (centres undefined)
Activity [1]: 13%
Activity [2]: 25%
Activity [3]: 7%
Activity [4]: 8%
